Laboratory results from patent US20240400722A1, “Chemically Inducible Heterodimerizing System and A Method For Generation Thereof” (Miltenyi Biotec B.V. & Co. KG, priority 2023, published 2024).
“Also recorded” adds a separate entry of the source.

Tests used:
acVHH-V104D/dfM1-1 = assay: NanoBiT assay in Jurkat T cells, small molecule titration of acVHH-V104D/dfM1-1; assay type: cell-based, llama
From the text: (§1) The ac VHH variants were N-terminally fused to an extracellular globular domain used to assess expression, as well as a transmembrane domain, and C-terminally fused to a subunit of the split NanoLuc (NanoBiT® system), Promega. Thus, the resulting fusion protein consisted of an extracellular globular domain, followed by a transmembrane domain and intracellular ac VHH variants followed by a subunit of split NanoLuc luciferase.
(§2) The different chains built were as follows: the first polypeptide chain comprised truncated EGFR extracellular and transmembrane domain, followed by a 2×G4S linker and cither ac VHH-V104D or ac VHH-WT, followed by a linker (SEQ ID NO:31) and 11S NanoBiT® “Large BiT”, whereas the second polypeptide chain comprised truncated HER2 extracellular and transmembrane domain, followed by a linker (SEQ ID NO:32) and either ac VHH-V104D or ac VHH-WT or ac VHH-M1 or acVHH-M2 or dfM1-1 or dfM1-2, followed by a linker (SEQ ID NO:33) and 114 NanoBiT® “Small BiT”. […] The principle of the assay is as follows: upon binding of (i.e. dimerization) of the respective ac VHH variants, the fused NanoLuc luciferase subunits are brought into close proximity (the two subunits being fused to the two different polypeptide chains, respectively), thus resulting in a functional luciferase enzyme, whose activity can be measured. […]

Raji target cells = assay: IFN-γ and IL-2 secretion (ELISA) of transduced split CAR T cells co-cultured with Raji target cells; assay type: cell-based, human; settings: medium, 0.1 μM or 100 μM caffeine, overnight, E:T 2:1
From the text: The nucleotide sequence encoding the monomeric CAR chain 1 (SEQ ID NO:34) containing dfM1-1 was fused to the nucleotide sequence encoding the dimeric CAR chain 2 (SEQ ID NO:36) or to the nucleotide sequence encoding monomeric CAR chain 2 (SEQ ID NO:37) via a furin cleavage site and 2A sequence (SEQ ID NO:41) and cloned into a third generation lentiviral expression vector with puromycin resistence gene (pCDH, System Biosciences). This plasmid, along with second-generation viral packaging plasmids (psPAX2 and pMD2.G, Addgene plasmids #12260 and #12259), was co-transfected in Lenti-X 293T cells (Takara) using the PureFection Transfection Reagent (System Biosciences) according to instructions provided by the manufacturer. Supernatants were collected on day 2 and 3 following transfection and concentrated 100-fold using Lenti-X Concentrator (Takara) according to the manufacturer's instructions. Viral suspensions were resuspended in RPMI-1640 medium supplemented with 10% FCS and 1% penicillin-streptomycin and frozen at −80° C. […]
Supernatants of triplicate wells were pooled and stored at −80° C. IFN-γ and IL-2 secretion was quantified by ELISA using kits from Biolegend (ELISA MAX Deluxe Set Human IFN-γ and ELISA MAX Deluxe Set Human IL-2, respectively), according to the manufacturer's instructions.

acVHH-V104D = settings: read-out: binding affinity (KD) of caffeine to acVHH-V104D; SPR multi-cycle kinetics, steady state analysis; acVHH-V104D immobilised on CM5 chip
Protocol: A stock of 30 μg/mL protein ac VHH-V104D was prepared in 10 mM NaAc buffer of pH 5 and covalently immobilised on a CM5 chip (GE Healthcare) with a 300 sec contact time and 10 μL/min flow rate to reach 4 600 response units (RU). […] KD values were obtained by steady state analysis.

acVHH-V104D/acVHH-M1 = settings: Jurkat T cells; compared with homodimeric switch acVHH-WT
From the text: as §1, §2

[1] = cited from earlier work
acVHH-V104D/dfM1-2 = assay: NanoBiT assay in Jurkat T cells, small molecule titration of acVHH-V104D/dfM1-2; assay type: cell-based, llama
From the text: as §1, §2

[2] = test system: CD19-positive Jurkat target cells; assay: Lysis of target cells by split CAR-expressing primary human T cells with or without dimerizer; assay type: cell-based; settings: 50 μM caffeine or medium only, E:T 2:1, 4 h; split CARs with dfM1-1 or dfM1-2 and acVHH V104D
From the text: 4 different architectures of split CARs consisting of two chains were investigated per acVHH variant where both the first and second chain of the split CAR is either monomeric or dimeric. A dimeric first CAR chain entails an FMC63 scFv followed by a linker followed by a Flag tag followed by a CD8a hinge and transmembrane domain followed by a 4-1BB co-stimulatory domain followed by a linker followed by acVHH dfM1-1 or dfM1-2 (SEQ ID NO:34 where ac VHH is dfM1-1). The only difference for a monomeric first CAR chain is the mutation of the two cysteine residues in the CD8a hinge to serine residues (SEQ ID NO:35). A dimeric second chain entails a DAP10 extracellular domain followed by a CD8 transmembrane domain followed by 2 amino acids followed by a 4-1BB co-stimulatory domain followed by a linker followed by ac VHH V104D followed by a linker followed by CD3z signaling domain followed by a linker followed by m Cherry (SEQ ID NO:36). […]
After electroporation, the cells were incubated for 6 h at 37° C. […] The cells were co-cultured for 4 h at 37° C., then 150 μg/mL luciferin (Xenolight D-luciferin, Perkin Elmer) was added to each well and luminescence was measured after 20 min with an ENSPIRE Multimode plate reader (Perkin Elmer). Specific lysis was calculated according to the formula:

acVHH-V104D+acVHH-M1 = assay: Yeast display, small molecule-triggered heterodimerization acVHH-V104D + acVHH-M1; assay type: binding, llama; settings: 500 nM soluble acVHH-V104D ± 10 μM compound
Protocol: (§3) Expression of the acVHH variants on yeast was induced by culturing the cells in SG-CAA medium (20 g/L galactose, 2 g/L glucose, 6.7 g/L yeast nitrogen base, 5 g/L bacto casamino acids, 10.2 g/L Na2HPO4*7 H2O, 8.56 g/L NaH2PO4*H2O) overnight at 20° C. and 180 rpm. Detection of full-length proteins on the surface of the cells was carried out by staining the cells with anti-c-myc AlexaFluor 488 (9E10, Thermo Fisher). […] After a washing step with PBSA, they were stained with an anti-HA-Alexa Fluor 488 (BioLegend) to gate for displaying yeast cells and the geometric mean fluorescence intensity (gMFI) of binding to acVHH-V104D, detected by co-staining with a Penta-His-Alexa Fluor 647 (Qiagen) (recognizing the His-tag on acVHH-V104D) was measured.
(§4) 56 clones of the library were sequenced as explained in Example 2. […] Their binding and affinity to soluble acVHH-V104D as well as full length display was assessed with yeast surface display as described in Example 2.
(§5) EC50 values were calculated like the KD values by fitting the gMFI binding values to a 1:1 binding interaction model (Zajc et al., Methods Mol Biology. 2022; 2491:155-173).

acVHH-V104D+acVHH-M2 = assay type: binding, llama; settings: 500 nM soluble acVHH-V104D ± 10 μM compound
Protocol: as §3

V104D+dfM1-1 = settings: 500 nM soluble acVHH-V104D ± 10 μM compound
Protocol: as §3, §4, §5

V104D+dfM1-2 = settings: 500 nM soluble acVHH-V104D ± 10 μM compound
Protocol: as §3, §4, §5

[3] = compared with homodimeric switch acVHH-WT
[4] = increasing concentrations of theobromine

For Cn1c(=O)c2c(ncn2C)n(C)c1=O [caffeine], the “EC50 for caffeine, V104D+dfM1-1, NanoBiT” value (acVHH-V104D/dfM1-1; [3]) was “increased”, the “IFN-γ and IL-2 secretion of split CAR T cells” value (Raji target cells) was “strong dependence” and the Kd (acVHH-V104D) was 72.4 mM. The “EC50 for caffeine, V104D+M1, NanoBiT” value (acVHH-V104D/acVHH-M1) was “increased”, the “plasma levels of caffeine” value ([1]; absence of coffee, tea and chocolate consumption for 21 days, detection limit of the method) was less than 500 nM and the “maximum plasma caffeine levels” value ([1]; after drinking one cup of coffee) was roughly 10 µM. The caffeine plasma levels ([1]; nonhabitual coffee drinkers after coffee abstinence for at least 16 hours) was 1.9 ± 1.6 µmol/L, the “EC50 for caffeine, V104D+dfM1-2, NanoBiT” value (acVHH-V104D/dfM1-2; [3]) was “increased” and the “lysis of CD19-positive Jurkat T cells by split CAR T cells” value [2] was “caffeine-dependent cytotoxic activity”.

For Cn1c(=O)c2[nH]cnc2n(C)c1=O [theophylline], the “triggering of heterodimerization acVHH-V104D/acVHH-M1” value (acVHH-V104D+acVHH-M1) was “can trigger; also recorded: can be triggered”, the “triggering of heterodimerization acVHH-V104D/acVHH-M2” value (acVHH-V104D+acVHH-M2) was “can trigger” and the “triggering of heterodimerization acVHH-V104D/dfM1-1” value (V104D+dfM1-1) was “can be triggered”. For the same compound, the “triggering of heterodimerization acVHH-V104D/dfM1-2” value (V104D+dfM1-2) was “can be triggered”.

For Cn1c(=O)[nH]c2ncn(C)c2c1=O [paraxanthine], the “triggering of heterodimerization acVHH-V104D/acVHH-M1” value (acVHH-V104D+acVHH-M1) was “can trigger” and the “triggering of heterodimerization acVHH-V104D/acVHH-M2” value (acVHH-V104D+acVHH-M2) was “can trigger”.

For Cn1cnc2c1c(=O)[nH]c(=O)n2C [theobromine], the “triggering of heterodimeric switch acVHH-V104D/dfM1-1” value (acVHH-V104D/dfM1-1; [4]) was “can trigger”, the “triggering of heterodimerization acVHH-V104D/acVHH-M1” value (acVHH-V104D+acVHH-M1) was “can trigger” and the “triggering of heterodimeric switch acVHH-V104D/dfM1-2” value (acVHH-V104D/dfM1-2; [4]) was “can trigger”. For the same compound, the “triggering of heterodimerization acVHH-V104D/acVHH-M2” value (acVHH-V104D+acVHH-M2) was “can trigger”.
